Our source for the IC50 and inhibition values is ChEMBL document CHEMBL1154003, “Synthesis of boronic acid derivatives of tyropeptin: proteasome inhibitors” (Bioorg Med Chem Lett, 2009).

Molecules are shown by their SMILES. Activity calls are given as the source filed them. No cut-off for these calls is given here.

Assay [1] can be described thus: Inhibition of chymotrypsin-like activity of human 20S proteasome.
Assay [2] is described as follows: Inhibition of peptidylglutamyl-peptide hydrolyzing activity of human 20S proteasome.
Assay [3] is described as follows: Inhibition of trypsin-like activity of human 20S proteasome.
A further assay relates to PC-3. Description: Cytotoxicity against human PC3 cells. Format: functional, cell-based.

On to `COc1ccc(C[C@H](NC(=O)[C@@H](NC(=O)[C@@H](N)Cc2ccc(OC)cc2)C(C)C)B(O)O)cc1`, for which the IC50 (as a rule, the concentration that gives 50% inhibition) in assay [1] is 130 nM; in assay [2], 16000 nM; in assay [3] it was 3700 nM.

In the case of `COc1ccc(CC(C=O)NC(=O)[C@@H](NC(=O)[C@H](Cc2ccc(OC)cc2)NC(=O)Cc2cccc3ccccc23)C(C)C)cc1` (stereo not given in full), the inhibition entry in the assay on PC-3 is “Active”. Moreover, the IC50 in assay [1] was 83 nM; in assay [2], above 40000 nM; in assay [3] it was above 40000 nM.

For the compound `COc1ccc(C[C@H](NC(=O)[C@@H](NC(=O)[C@H](Cc2ccc(OC)cc2)NC(=O)Cc2cccc3ccccc23)C(C)C)B(O)O)cc1`, the IC50 in assay [1] was 6.3 nM; in assay [2] it was above 40000 nM; in assay [3], 5600 nM.

Turning to `COc1ccc(C[C@H](N)C(=O)N[C@H](C(=O)N[C@@H](CC(C)C)B(O)O)C(C)C)cc1`, the IC50 in assay [1] is 21 nM; in assay [2] it was 1400 nM; in assay [3] it was 1900 nM.

Take `COc1ccc(C[C@H](N)C(=O)N[C@H](C(=O)N[C@@H](Cc2ccccc2)B(O)O)C(C)C)cc1`: the values for the IC50 in assay [1], in assay [2] and in assay [3] were 100 nM, 7700 nM and 4000 nM, respectively.

As to `COc1ccc(C[C@H](NC(=O)Cc2cccc3ccccc23)C(=O)N[C@H](C(=O)N[C@@H](CC(C)C)B(O)O)C(C)C)cc1`, the IC50 in assay [1] turned out to be 2.6 nM; in assay [2], 940 nM; in assay [3], 2800 nM.

On to `CC(C)C[C@H](NC(=O)[C@H](Cc1ccccc1)NC(=O)c1cnccn1)B(O)O` [BORTEZOMIB], for which the IC50 is 24 nM in assay [1], 730 nM in assay [2] and above 40000 nM in assay [3].

With `COc1ccc(C[C@H](NC(=O)Cc2cccc3ccccc23)C(=O)N[C@H](C(=O)N[C@@H](Cc2ccccc2)B(O)O)C(C)C)cc1`, the IC50 turned out to be 4.4 nM in assay [1], 7400 nM in assay [2] and 4600 nM in assay [3].
